Measured values taken from patent US20100292178A1, “Method of treating non-insulin dependent diabetes mellitus and related complications” (priority 2003, published 2010).
Read-outs that look alike come from different tables or passages of the source. Blank lines part the entries; values can stand above or below the compound they belong to.

Tests used:
[1] = system: patients with diabetic limb-end gangrene; assay: Clinical observation of diabetic limb-end gangrene treated with Glucosynergy
[2] = design: species or system domestic rabbits; conditions: rabbit, in vivo
Experimental: The effect of the berberine is the most quickly and distributed extensively, when the berberine is labeled with Hydrogen 3 and is administered to domestic rabbits by direct feeding that berberine is injected through a non-invasive tube directly through the mouth or by injection. […] The total amount in the blood plasma is 38%±3%.
(§1) All samples are calibrated by using an internal standard.

[3] = rabbit, in vivo
Experimental: Pharmokinetic properties of berberine are performed by conventional method involving radioactive isotope. […] All samples are calibrated by using an internal standard.
300 μg quinidine is added to the test tube as an internal standard. One ml chloroform is added into the test tube, which is shaken for ten minutes. Then, the test tube is centrifuged at 400 rev/min for five minutes with a sufficient gravity for separating residues from its liquid. An absolute amount of 0.8 ml of the chloroform is collected by a pipette and is subsequently dried by blowing air. The residue from the dried chloroform is collected and dissolved in a suitable amount of dry ethanol which contains essentially no water. The sample is ready for analysis using thin layer chromatography.
A silica gel plate is cut into nine strips, each being 1.0 cm wide. Separation is conducted under running buffer of ethyl acetate, ethyl methanoate, methanol and water mixture at a ratio of 5.4:4.6:1.2:1.0. The sample size is 5 μl. When a desirable separation is achieved, the strips are scanned for reflective intensity at wavelength λex, 350 nm and λem 550 nm using Japanese Shimatsu CS-900 double wavelengths thin layer reflective straight line scanner with a Xenon lamp. […] All scans are performed with 0.5 mm×10 mm slit, at scanning speed 20 mm/min, and at recording paper speed 10 mm/min.
After the blood serum's pH is adjusted to basic, ethyl ether is used to extract berberine. After it is dried, the residues are dissolved in a mobile phase. A fixed amount of sample is introduced into the HPLC system containing a reverse C18 column. The mobile phase is methanol, water and ethylenediamine at a ratio of 75:25:0.5. The pH is adjusted to 6.8 by using acetic acid. Concentration or amount is monitored at wavelength (λ) 345 nm.
C=Ae^−a+Be^−β−(A−B)e^−kat, where ka is average rate constant weighed by their coefficients: ka=(Aβ+Bα)/(A+B).

[4] = Pharmacokinetics of a single oral dose of berberine in human patients; format: in vivo; conditions: 300 mg orally
[5] = Excretion of labeled berberine after injection into large mice; format: in vivo; conditions: within six days after injection
From the text: Within the six days after the injection of the labeled berberine into large mice, the amounts of the labeled berberine found in the mice's urine and feces were 73% and 10.9% of the injected concentration respectively. The labeled berberine found in the urine was primarily the original form although some of it became metabolized products.
as §1

[6] = cited from earlier work
[7] = 70 cases Observation Group, 50 cases Contrast Group
[8] = Treatment Group 18 cases, Contrast Group 6 cases

Compound: CN(C)C(=N)N=C(N)N [Glucophage]
electrocardiogram hypertrophic cardiomyopathy: effective [1, 7]: 12 cases
electrocardiogram hypertrophic cardiomyopathy: not effective [1, 7]: 35 cases
electrocardiogram hypertrophic cardiomyopathy: outstandingly effective [1, 7]: 3 cases
electrocardiogram hypertrophic cardiomyopathy: total effective rate [1, 7]: 30%
Fibrinogen ([1]; After Treatment): 3.45 ± 0.44 q/L
HDL ([1]; After Treatment): 1.12 ± 0.24 mmol/L
LDL ([1]; After Treatment): 4.51 ± 0.81 mmol/L
Red Cells Accumulation ([1]; After Treatment): 49.50 ± 4.86%
TC ([1]; After Treatment): 5.40 ± 0.76 mmol/L
TG ([1]; After Treatment): 3.39 ± 0.76 mmol/L
Total Blood Viscosity High Excise ([1]; After Treatment): 6.33 ± 0.34 mpa · s
Total Blood Viscosity Low Excise ([1]; After Treatment): 15.19 ± 2.10 mpa · s
Viscosity Plasma ([1]; After Treatment): 2.45 ± 0.37
Fibrinogen ([1]; Before Treatment): 3.90 ± 0.81 q/L
HDL ([1]; Before Treatment): 1.07 ± 0.20 mmol/L
LDL ([1]; Before Treatment): 5.27 ± 1.24 mmol/L
Red Cells Accumulation ([1]; Before Treatment): 49.58 ± 4.34%
TC ([1]; Before Treatment): 5.89 ± 1.17 mmol/L
TG ([1]; Before Treatment): 3.54 ± 0.67 mmol/L
Total Blood Viscosity High Excise ([1]; Before Treatment): 6.23 ± 0.57 mpa · s
Total Blood Viscosity Low Excise ([1]; Before Treatment): 15.21 ± 2.17 mpa · s
Viscosity Plasma ([1]; Before Treatment): 2.72 ± 0.66
cases ineffective ([1]; Contrast Group 6 cases): 3 cases
cases improved [1, 8]: 2 cases
cases recovered [1, 8]: 1 cases
24 hours fixed quantity of uric sugar, Before Treatment ([1]; baseline): 15.23 ± 3.02 g/24 h
Serum SOD Vitality, Before Treatment ([1]; baseline): 89.96 ± 18.21 nu/L
24 hours fixed quantity of uric sugar, After Treatment ([1]; human, in vivo): 8.37 ± 1.89 g/24 h
Serum SOD Vitality, After Treatment ([1]; human, in vivo): 94.21 ± 17.03 nu/L
Serum SOD Vitality, Value of Difference ([1]; human, in vivo): −4.25 ± 3.33 nu/L

total amount in the blood plasma [2]: 38%±3%
time to maximum concentration in the blood [3]: about 50 minutes
apparent distribution volume (Vd) ([3]; iv): 22.1 ± 1.71 L/kg
apparent half life for elimination (t½ β) ([3]; iv): 35.8 ± 2.0 h
apparent half life of distribution (t½ α) ([3]; iv): 1.03 ± 0.11 h
apparent drug distribution volume (Vd) ([3]; po): 20 ± 3 L/kg
apparent half life for elimination (t½ β) ([3]; po): 35.3 ± 1.3 h
apparent half life of distribution (t½ α) ([3]; po): 1.41 ± 0.16 h
apparent rate constant ka ([3]; po): 2.45±0.22 per hour
maximum plasma concentration Cmax [4]: 395 ng/mL
t½ corresponding to elimination rate constant Ke [4]: 2.94 h
Tmax ([4]; human, plasma, po, read-out: time to peak plasma concentration, tmax): 2.37 h
half-life ([4]; human, plasma, po, read-out: t½ corresponding to apparent absorption rate constant ka (converted)): 0.87 h
amount of labeled berberine found in feces [5]: 10.9 % of the injected concentration
amount of labeled berberine found in urine [5]: 73 % of the injected concentration
Compound: COc1ccc2cc3[n+](cc2c1OC)CCc1cc2c(cc1-3)OCO2 [berberine]
tissue concentration measured by radiation intensity [2]: the highest in the lung, and then in liver, spleen, kidney and heart

Compound: OC[C@H]1O[C@@H](O[C@@H]2OC=C[C@H]3[C@H](O)[C@@H]4O[C@]4(CO)[C@@H]23)[C@H](O)[C@@H](O)[C@@H]1O [catalpol]
solubility in lipophilic organic solvents ([6]; chloroform, benzene, petroleum ether): almost insoluble
solubility in water and methanol [6]: highly soluble
